# According to patent US7396837B2, “Antitumoral analogs of lamellarins” (Pharma Mar, S.A.U., priority 2002, dated 2008):
# Like-named read-outs stand apart in the source and are kept apart here.
# Assays:
# LoVo-Dox = assay: SRB colorimetric cell growth inhibition assay, LoVo-Dox (MDR); assay type: cell-based; conditions: for CC50: cell killing (cytotoxic effect); for GI50: GI=growth inhibition, read-out: GI50 LOVO-DOX
# Summary of the method: (§1)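 Cancer cells grown in vitro were continuously treated with compound. Cell mass was then determined by SRB staining and expressed as growth inhibition.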
# K-562 = assay: SRB colorimetric cell growth inhibition assay, K-562; assay type: cell-based; conditions: for CC50: cell killing (cytotoxic effect); for GI50: GI=growth inhibition, read-out: GI50 K-562
# Summary of the method: as §1
# HT-29 = assay: SRB colorimetric cell growth inhibition assay, HT-29; assay type: cell-based; conditions: for GI50: GI=growth inhibition, read-out: GI50 HT-29; for CC50: cell killing (cytotoxic effect)
# Summary of the method: as §1
# LoVo = assay: SRB colorimetric cell growth inhibition assay, LoVo; assay type: cell-based; conditions: for CC50: cell killing (cytotoxic effect); for GI50: GI=growth inhibition, read-out: GI50 LOVO
# Summary of the method: as §1
# SK-MEL-28 = assay: SRB colorimetric cell growth inhibition assay, SK-MEL-28; assay type: cell-based; conditions: for GI50: GI=growth inhibition, read-out: GI50 MEL-28; for TGI MEL-28: total growth inhibition (cytostatic effect)
# Summary of the method: as §1
# PANC-1 = assay: SRB colorimetric cell growth inhibition assay, PANC-1; assay type: cell-based; conditions: for CC50: cell killing (cytotoxic effect); for GI50: GI=growth inhibition, read-out: GI50 PANC-1
# Summary of the method: as §1
# A-549 = assay: SRB colorimetric cell growth inhibition assay, A-549; assay type: cell-based; conditions: for GI50: GI=growth inhibition, read-out: GI50 A-549; for CC50: cell killing (cytotoxic effect)
# Summary of the method: as §1
# IGROV-ET = assay: SRB colorimetric cell growth inhibition assay, IGROV-ET (ET-743 resistant); assay type: cell-based; conditions: for GI50: GI=growth inhibition, read-out: GI50 IGROV-ET; for TGI IGROV-ET: total growth inhibition (cytostatic effect)
# Summary of the method: as §1
# LNCaP = assay: SRB colorimetric cell growth inhibition assay, LNCaP; assay type: cell-based; conditions: for GI50: GI=growth inhibition, read-out: GI50 LN-caP; for TGI LN-caP: total growth inhibition (cytostatic effect)
# Summary of the method: as §1
# human topoisomerase I = molecular target: T1, human topoisomerase I (Homo sapiens, UniProt P11387); assay: Topoisomerase I DNA relaxation assay (supercoiled plasmid DNA); assay type: biochemical; conditions: supercoiled plasmid DNA, each compound tested at 1 μM, agarose gel with ethidium bromide
# T1 sequence (P11387 1-765): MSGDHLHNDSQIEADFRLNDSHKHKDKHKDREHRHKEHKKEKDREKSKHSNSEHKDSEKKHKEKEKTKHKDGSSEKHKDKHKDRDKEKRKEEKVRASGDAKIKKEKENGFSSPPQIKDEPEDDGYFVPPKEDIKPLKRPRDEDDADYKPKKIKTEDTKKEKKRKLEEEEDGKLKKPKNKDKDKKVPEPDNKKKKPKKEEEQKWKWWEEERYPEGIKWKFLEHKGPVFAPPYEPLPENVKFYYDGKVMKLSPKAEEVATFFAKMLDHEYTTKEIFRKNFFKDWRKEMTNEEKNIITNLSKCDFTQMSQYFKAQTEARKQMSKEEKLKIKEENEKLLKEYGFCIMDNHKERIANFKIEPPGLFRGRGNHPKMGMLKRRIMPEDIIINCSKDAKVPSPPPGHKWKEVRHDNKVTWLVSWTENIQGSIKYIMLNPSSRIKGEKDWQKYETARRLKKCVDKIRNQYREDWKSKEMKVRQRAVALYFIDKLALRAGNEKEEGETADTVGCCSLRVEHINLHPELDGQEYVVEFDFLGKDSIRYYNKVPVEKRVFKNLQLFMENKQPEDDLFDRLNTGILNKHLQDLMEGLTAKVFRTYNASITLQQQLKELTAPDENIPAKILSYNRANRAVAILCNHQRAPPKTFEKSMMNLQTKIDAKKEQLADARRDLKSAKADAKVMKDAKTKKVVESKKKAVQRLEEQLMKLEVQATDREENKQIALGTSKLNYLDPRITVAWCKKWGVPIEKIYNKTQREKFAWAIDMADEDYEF
# Method: Two assays, based on DNA relaxation and DNA cleavage (Bailly, C. DNA relaxation and cleavage assays to study topoisomerase I inhibitors. Methods Enzymol. 2001, 340, 610-623) were used evaluate the effects of the lamellarin analogs on the catalytic activity of human topoisomerase I.
# In the first assay, a supercoiled plasmid DNA was relaxed with topoisomerase I in the absence or presence of the test compounds, each tested at 1 μM. DNA relaxation products were then resolved by gel electrophoresis on agarose gels containing ethidium bromide to stain the DNA.
# SK-BR-3 = assay: SRB colorimetric cell growth inhibition assay, SK-BR-3; assay type: cell-based; conditions: for GI50: GI=growth inhibition, read-out: GI50 SK-BR-3; for TGI SK-BR-3: total growth inhibition (cytostatic effect)
# Summary of the method: as §1
# IGROV = assay: SRB colorimetric cell growth inhibition assay, IGROV; assay type: cell-based; conditions: for GI50: GI=growth inhibition, read-out: GI50 IGROV; for TGI IGROV: total growth inhibition (cytostatic effect)
# Summary of the method: as §1
# DU-145 = assay: SRB colorimetric cell growth inhibition assay, DU-145; assay type: cell-based; conditions: for GI50: GI=growth inhibition, read-out: GI50 DU-145; for TGI DU-145: total growth inhibition (cytostatic effect)
# Summary of the method: as §1
# SKOV-3 = assay: SRB colorimetric cell growth inhibition assay, SKOV-3; assay type: cell-based; conditions: SKOV-3
# Text: (§2) A colorimetric type of assay, using sulforhodamine B (SRB) reaction has been adapted for a quantitative measurement of cell growth and viability (following the technique described by P. A. Skehan, et al., J. Natl. Cancer Inst. 1990, 82, 1107-1112).
# (§3) This form of assay employs 96 well cell culture microplates of 9 mm diameter (T. Mosmann et al., J. of Immunological Methods 1983, 65, 55-63; G. T. Faircloth et al., J. of Tissue and Culture Methods 1988, 11, 201-205).
# (§4) Most of the cell lines are obtained from American Type Culture Collection (ATCC) derived from different human cancer types.
# (§5) The values for mean +/− SD of data from triplicate wells are calculated. Some parameters for cellular responses can be calculated: GI=growth inhibition, TGI=total growth inhibition (cytostatic effect) and LC=cell killing (cytotoxic effect).
# H-MEC-1 = assay: SRB colorimetric cell growth inhibition assay, H-MEC-1; assay type: cell-based; conditions: H-MEC-1
# Text: as §2, §3, §4, §5
# [1] = total growth inhibition (cytostatic effect)
compound,measurement,setting,value
COc1cc(-c2c3n(c4c(=O)oc5cc(OC(=O)[C@@H](N)C(C)C)c(OC)cc5c24)CCc2cc(OC(=O)[C@@H](N)C(C)C)c(OC)cc2-3)ccc1OC(=O)[C@@H](N)C(C)C [Compound 135],IC (TGI),"LoVo-Dox; Homo sapiens, LOVO-DOX, total growth inhibition (cytostatic effect), read-out: TGI LOVO-DOX",8.76 µM
same,CC50,"LoVo-Dox; Homo sapiens, read-out: LC50 LOVO-DOX, LOVO-DOX",8.76 µM
same,GI50,LoVo-Dox; LOVO-DOX,3.8 µM
same,IC (TGI),"K-562; Homo sapiens, K562, K-562, total growth inhibition (cytostatic effect), read-out: TGI K-562",6.82 µM
same,CC50,"K-562; Homo sapiens, K562, read-out: LC50 K-562, K-562",8.76 µM
same,GI50,K-562; K-562,1.07 µM
same,GI50,HT-29; HT-29,1.15 µM
same,IC (TGI),"HT-29; Homo sapiens, HT-29, HT-29, total growth inhibition (cytostatic effect), read-out: TGI HT-29",4.82 µM
same,CC50,"HT-29; Homo sapiens, HT-29, read-out: LC50 HT-29, HT-29",8.76 µM
same,CC50,"LoVo; Homo sapiens, LoVo, read-out: LC50 LOVO, LOVO",8.76 µM
same,IC (TGI),"LoVo; Homo sapiens, LOVO, total growth inhibition (cytostatic effect), read-out: TGI LOVO",8.76 µM
same,GI50,LoVo; LOVO,2.69 µM
same,GI50,SK-MEL-28; MEL-28,1.67 µM
same,TGI MEL-28,SK-MEL-28; MEL-28,5.00E−06 Molar
same,CC50,SK-MEL-28; human,8.76 µM
same,IC (TGI),"PANC-1; Homo sapiens, PANC-1, PANC-1, total growth inhibition (cytostatic effect), read-out: TGI PANC-1",5.53 µM
same,CC50,"PANC-1; Homo sapiens, PANC-1, read-out: LC50 PANC-1, PANC-1",8.76 µM
same,GI50,PANC-1; PANC-1,2.11 µM
same,GI50,A-549; A-549,3.34 µM
same,IC (TGI),"A-549; Homo sapiens, A549, A-549, total growth inhibition (cytostatic effect), read-out: TGI A-549",8.76 µM
same,CC50,"A-549; Homo sapiens, A549, read-out: LC50 A-549, A-549",8.76 µM
same,GI50,IGROV-ET; IGROV-ET,0.586 µM
same,TGI IGROV-ET,IGROV-ET; IGROV-ET,1.98E−06 Molar
same,CC50,IGROV-ET; human,6.33 µM
same,GI50,LNCaP; LN-caP,0.783 µM
same,TGI LN-caP,LNCaP; LN-caP,2.02E−06 Molar
same,CC50,LNCaP; human,4.91 µM
same,stimulation of DNA cleavage by topoisomerase I / inhibition of topoisomerase I (nicked DNA band) in DNA relaxation assay,human topoisomerase I,No effect
same,GI50,SK-BR-3; SK-BR-3,0.579 µM
same,TGI SK-BR-3,SK-BR-3; SK-BR-3,2.61E−06 Molar
same,CC50,SK-BR-3; human,8.76 µM
same,GI50,IGROV; IGROV,2.1 µM
same,TGI IGROV,IGROV; IGROV,4.68E−06 Molar
same,CC50,IGROV; human,8.76 µM
same,GI50,DU-145; DU-145,1.6 µM
same,TGI DU-145,DU-145; DU-145,3.78E−06 Molar
same,CC50,DU-145; human,8.76 µM
COc1cc(-c2c3n(c4c(=O)oc5cc(OS(C)(=O)=O)c(OC)cc5c24)CCc2cc(OS(C)(=O)=O)c(OC)cc2-3)ccc1OS(C)(=O)=O [Compound 22],GI50,LoVo-Dox; LOVO-DOX,6.59 µM
same,CC50,"LoVo-Dox; LOVO-DOX, read-out: LC50 LOVO-DOX",13.6 µM
same,TGI LOVO-DOX,"LoVo-Dox; LOVO-DOX, total growth inhibition (cytostatic effect)",1.36E−05 Molar
same,GI50,K-562; K-562,0.67 µM
same,CC50,"K-562; K-562, read-out: LC50 K-562",13.6 µM
same,TGI K-562,"K-562; K-562, total growth inhibition (cytostatic effect)",4.77E−06 Molar
same,GI50,"SKOV-3; GI=growth inhibition, read-out: GI50 SKOV-3",0.201 µM
same,LC50 (concentration causing 50% net cell killing),"SKOV-3; cell killing (cytotoxic effect), read-out: LC50 SKOV-3",13.6 µM
same,TGI SKOV-3,SKOV-3; [1],2.22E−06 Molar
same,GI50,HT-29; HT-29,0.879 µM
same,CC50,"HT-29; HT-29, read-out: LC50 HT-29",13.6 µM
same,TGI HT-29,"HT-29; HT-29, total growth inhibition (cytostatic effect)",1.36E−05 Molar
same,GI50,"H-MEC-1; GI=growth inhibition, read-out: GI50 H-MEC-1",0.856 µM
same,LC50 (concentration giving 50% net cell killing),H-MEC-1; cell killing (cytotoxic effect),10.4 µM
same,TGI H-MEC-1,H-MEC-1; [1],2.91E−06 Molar
same,GI50,LoVo; LOVO,0.484 µM
same,CC50,"LoVo; LOVO, read-out: LC50 LOVO",13.6 µM
same,TGI LOVO,"LoVo; LOVO, total growth inhibition (cytostatic effect)",2.49E−06 Molar
same,GI50,SK-MEL-28; MEL-28,0.332 µM
same,CC50,"SK-MEL-28; MEL-28, cell killing (cytotoxic effect), read-out: LC50 MEL-28",13.6 µM
same,TGI MEL-28,SK-MEL-28; MEL-28,3.56E−06 Molar
same,GI50,PANC-1; PANC-1,0.976 µM
same,CC50,"PANC-1; PANC-1, read-out: LC50 PANC-1",13.6 µM
same,TGI PANC-1,"PANC-1; PANC-1, total growth inhibition (cytostatic effect)",1.36E−05 Molar
same,GI50,A-549; A-549,0.89 µM
same,CC50,"A-549; A-549, read-out: LC50 A-549",13.6 µM
same,TGI A-549,"A-549; A-549, total growth inhibition (cytostatic effect)",7.73E−06 Molar
same,GI50,IGROV-ET; IGROV-ET,2.89 µM
same,CC50,"IGROV-ET; IGROV-ET, cell killing (cytotoxic effect), read-out: LC50 IGROV-ET",13.6 µM
same,TGI IGROV-ET,IGROV-ET; IGROV-ET,1.36E−05 Molar
same,GI50,LNCaP; LN-caP,0.564 µM
same,CC50,"LNCaP; LN-caP, cell killing (cytotoxic effect), read-out: LC50 LN-caP",13.6 µM
same,TGI LN-caP,LNCaP; LN-caP,1.82E−06 Molar
same,stimulation of DNA cleavage by topoisomerase I / inhibition of topoisomerase I (nicked DNA band) in DNA relaxation assay,human topoisomerase I,inactive
same,GI50,SK-BR-3; SK-BR-3,0.257 µM
same,CC50,"SK-BR-3; SK-BR-3, cell killing (cytotoxic effect), read-out: LC50 SK-BR-3",7.16 µM
same,TGI SK-BR-3,SK-BR-3; SK-BR-3,1.81E−06 Molar
same,GI50,IGROV; IGROV,0.787 µM
same,CC50,"IGROV; IGROV, cell killing (cytotoxic effect), read-out: LC50 IGROV",13.6 µM
same,TGI IGROV,IGROV; IGROV,8.54E−06 Molar
same,GI50,DU-145; DU-145,0.743 µM
same,CC50,"DU-145; DU-145, cell killing (cytotoxic effect), read-out: LC50 DU-145",13.6 µM
same,TGI DU-145,DU-145; DU-145,8.10E−06 Molar
